Some results are limits rather than exact numbers.

As usually defined, the IC50 is the concentration that gives 50% inhibition.

The target in the test is IDH1-R132H recombinant protein (Homo sapiens (Human), UniProt O75874, R132H). The test is described as follows: IDH1-R132H enzymatic assay (NADPH consumption, diaphorase/resazurin readout). It is filed as biochemical. Conditions: inhibition of NADPH consumption, 30 nM IDH1-R132H; read-out: Enzyme IDH1 R132H IC50. The procedure: Assays were performed in a 384-well black plate. An aliquot of 250 nL of compound was incubated with 10 μL of 30 nM IDH1-R132H or 10 nM IDH1-R132C recombinant protein in assay buffer (50 mM Tris pH=7.5, 150 mM NaCl, 5 mM MgCl2, 0.1% (w/v) Bovine Serum Albumin, and 0.01% Triton X-100) in each well at 25° C. for 15 minutes. After the plate was centrifuged briefly, an aliquot of 10 μL of 2 mM α-ketoglutarate and 20 μM NADPH solution prepared in assay buffer was then added to each well and the reaction was maintained at 25° C. for 45 minutes. An aliquot of 10 μL of diaphorase solution (0.15 U/mL diaphorase and 30 μM Resazurin in assay buffer) was added to each well. The plate was maintained at 25° C. for 15 minutes and then read on a plate reader with excitation and emission wavelengths at 535 nm and 590 nm, respectively. The IC50 of a given compound was calculated by fitting the dose response curve of inhibition of NADPH consumption at a given concentration with the four parameter logistic equation.
Chain of IDH1-R132H recombinant protein (O75874 whole entry R132H): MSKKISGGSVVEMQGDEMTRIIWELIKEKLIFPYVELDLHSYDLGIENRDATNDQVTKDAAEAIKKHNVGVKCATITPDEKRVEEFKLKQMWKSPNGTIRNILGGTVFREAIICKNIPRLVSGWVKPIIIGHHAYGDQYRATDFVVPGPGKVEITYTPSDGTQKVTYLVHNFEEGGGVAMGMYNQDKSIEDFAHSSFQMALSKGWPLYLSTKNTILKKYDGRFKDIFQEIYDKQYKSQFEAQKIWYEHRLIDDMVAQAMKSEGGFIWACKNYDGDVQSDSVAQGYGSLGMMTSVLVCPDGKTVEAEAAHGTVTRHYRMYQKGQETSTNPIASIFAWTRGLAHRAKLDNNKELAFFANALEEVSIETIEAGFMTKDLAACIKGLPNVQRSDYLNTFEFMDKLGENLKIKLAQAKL
In the case of `Cn1c(=O)oc2ccc(NCc3cc4cc(Cl)ccc4[nH]c3=O)cc21` [Compound I-2, 6-chloro-3-{[(3-methyl-2-oxo-2,3-dihydro-1,3-benzoxazol-5-yl)amino]methyl}-1,2-dihydroquinolin-2-one], the IC50 is 0.1 to 1 µM.
Then `O=c1[nH]c2cc(NCc3cc4cc(Cl)ccc4[nH]c3=O)ccc2o1` [Compound I-3, 6-chloro-3-{[(2-oxo-2,3-dihydro-1,3-benzoxazol-5-yl)amino]methyl}-1,2-dihydroquinolin-2-one], with 0.1 to 1 µM; and `CN1C(=O)CCc2cc(NCc3cc4cc(Cl)ccc4[nH]c3=O)ccc21` [Compound I-5, 6-chloro-3-{[(1-methyl-2-oxo-1,2,3,4-tetrahydroquinolin-6-yl)amino]methyl}-1,2-dihydroquinolin-2-one], with 0.1 to 1 µM; and `O=c1[nH]c2ccc(Cl)cc2cc1CNc1cc2ccccc2cn1` [Compound I-6, 6-chloro-3-{[(isoquinolin-3-yl)amino]methyl}-1,2-dihydroquinolin-2-one], with 1 to 10 µM.
Then `N#Cc1ccc(NCc2cc3cc(Cl)ccc3[nH]c2=O)c2ccccc12` [Compound I-7, 4-{[(6-chloro-2-oxo-1,2-dihydroquinolin-3-yl)methyl]amino}naphthalene-1-carbonitrile], with 1 to 10 µM; and `O=c1[nH]c2ccc(Cl)cc2cc1CNc1cccc2cccnc12` [Compound I-8, 6-chloro-3-{[(quinolin-8-yl)amino]methyl}-1,2-dihydroquinolin-2-one], with 1 to 10 µM; and `O=c1[nH]c2ccc(Cl)cc2cc1CNc1cccc2c1OCC2` [Compound I-9, 6-chloro-3-{[(2,3-dihydro-1-benzofuran-7-yl)amino]methyl}-1,2-dihydroquinolin-2-one], with 1 to 10 µM.
With `CN1C(=O)COc2cc(NCc3cc4cc(Cl)ccc4[nH]c3=O)ccc21` [Compound I-10, 7-{[(6-chloro-2-oxo-1,2-dihydroquinolin-3-yl)methyl]amino}-4-methyl-3,4-dihydro-2H-1,4-benzoxazin-3-one], the half-maximal inhibitory concentration (IC50) fell in the range of 1 to 10 µM.
On to `O=C1COc2cc(NCc3cc4cc(Cl)ccc4[nH]c3=O)ccc2N1` [Compound I-11, 7-{[(6-chloro-2-oxo-1,2-dihydroquinolin-3-yl)methyl]amino}-3,4-dihydro-2H-1,4-benzoxazin-3-one], for which the IC50 is 1 to 10 µM.
Take `COc1cc2cc(CNc3ccc4[nH]c(-c5ccc6[nH]cnc6c5)nc4c3)c(=O)[nH]c2cc1OC` [Compound I-12, 3-({[2-(1H-1,3-benzodiazol-5-yl)-1H-1,3-benzodiazol-5-yl]amino}methyl)-6,7-dimethoxy-1,2-dihydroquinolin-2-one]: the IC50 was greater than 10 µM.
Next, `O=C1Cc2ccc(NCc3cc4cc(Cl)ccc4[nH]c3=O)cc2N1` [Compound I-13, 6-chloro-3-{[(2-oxo-2,3-dihydro-1H-indol-6-yl)amino]methyl}-1,2-dihydroquinolin-2-one]: greater than 10 µM; `Cn1c(=O)oc2cc(NCc3cc4cc(Cl)ccc4[nH]c3=O)ccc21` [Compound I-14, 6-chloro-3-{[(3-methyl-2-oxo-2,3-dihydro-1,3-benzoxazol-6-yl)amino]methyl}-1,2-dihydroquinolin-2-one]: greater than 10 µM; `O=c1[nH]c2ccc(Cl)cc2cc1CNc1cccc2ccncc12` [Compound I-15, 6-chloro-3-{[(isoquinolin-8-yl)amino]methyl}-1,2-dihydroquinolin-2-one]: greater than 10 µM.
Next, `O=c1[nH]c2ccc(Cl)cc2cc1CNc1cccc2c1OCCC2` [Compound I-16, 6-chloro-3-{[(3,4-dihydro-2H-1-benzopyran-8-yl)amino]methyl}-1,2-dihydroquinolin-2-one]: greater than 10 µM.
Then `COc1cc2c(cc1NCc1cc3cc(Cl)ccc3[nH]c1=O)NC(=O)CC2` [Compound I-17, 6-chloro-3-{[(6-methoxy-2-oxo-1,2,3,4-tetrahydroquinolin-7-yl)amino]methyl}-1,2-dihydroquinolin-2-one], with greater than 10 µM; and `O=C1CCc2ccc(NCc3cc4cc(Cl)ccc4[nH]c3=O)cc2N1` [Compound I-18, 6-chloro-3-{[(2-oxo-1,2,3,4-tetrahydroquinolin-7-yl)amino]methyl}-1,2-dihydroquinolin-2-one], with greater than 10 µM.
For `Cc1n[nH]c2cc(NCc3cc4cc(Cl)ccc4[nH]c3=O)ccc12` [Compound I-19, 6-chloro-3-{[(3-methyl-1H-indazol-6-yl)amino]methyl}-1,2-dihydroquinolin-2-one], the half-inhibitory concentration (IC50) is greater than 10 µM.
`O=C1CCc2cc(NCc3cc4cc(Cl)ccc4[nH]c3=O)ccc2N1` [Compound I-20, 6-chloro-3-{[(2-oxo-1,2,3,4-tetrahydroquinolin-6-yl)amino]methyl}-1,2-dihydroquinolin-2-one]: the IC50 was 1 to 10 µM.
Turning to `COc1ccc2[nH]c(=O)c(CNc3ccc4sc(C)nc4c3)cc2c1` [Compound I-21, 6-methoxy-3-{[(2-methyl-1,3-benzothiazol-5-yl)amino]methyl}-1,2-dihydroquinolin-2-one], the IC50 is greater than 10 µM.
As to `O=C1CCCc2c(NCc3cc4cc(Cl)ccc4[nH]c3=O)cccc21` [Compound I-22, 6-chloro-3-{[(5-oxo-5,6,7,8-tetrahydronaphthalen-1-yl)amino]methyl}-1,2-dihydroquinolin-2-one], the IC50 was greater than 10 µM.
In the case of `O=c1[nH]c2ccc(Cl)cc2cc1CNc1ccc2nncn2n1` [Compound I-23, 6-chloro-3-[({[1,2,4]triazolo[4,3-b]pyridazin-6-yl}amino)methyl]-1,2-dihydroquinolin-2-one], the IC50 is greater than 10 µM.
Next, `O=c1[nH]c2ccc(Cl)cc2cc1CNc1ccc2[nH]cnc2c1` [Compound I-24, 3-{[(1H-1,3-benzodiazol-5-yl)amino]methyl}-6-chloro-1,2-dihydroquinolin-2-one]: greater than 10 µM; `O=c1[nH]c2ccc(Cl)cc2cc1CNc1ccc2cn[nH]c2c1` [Compound I-25, 6-chloro-3-{[(1H-indazol-6-yl)amino]methyl}-1,2-dihydroquinolin-2-one]: greater than 10 µM.
In the case of `O=c1[nH]c2ccc(Cl)cc2cc1CNc1ccc2ncsc2c1` [Compound I-26, 3-{[(1,3-benzothiazol-6-yl)amino]methyl}-6-chloro-1,2-dihydroquinolin-2-one], the IC50 was greater than 10 µM.
Next, `O=c1[nH]c2ccc(Cl)cc2cc1CNc1ccc2ncccc2c1` [Compound I-27, 6-chloro-3-{[(quinolin-6-yl)amino]methyl}-1,2-dihydroquinolin-2-one]: greater than 10 µM; `O=c1[nH]c2ccc(Cl)cc2cc1CNc1ccc2[nH]c(C(F)(F)F)nc2c1` [Compound I-28, 6-chloro-3-({[2-(trifluoromethyl)-1H-1,3-benzodiazol-5-yl]amino}methyl)-1,2-dihydroquinolin-2-one]: greater than 10 µM.
Then `O=c1[nH]c2ccc(Cl)cc2cc1CNc1ccc2scnc2c1` [Compound I-29, 3-{[(1,3-benzothiazol-5-yl)amino]methyl}-6-chloro-1,2-dihydroquinolin-2-one], with greater than 10 µM; and `COc1ccc2[nH]c(=O)c(CNc3ccc4c(c3)OCCO4)cc2c1` [Compound I-30, 3-{[(2,3-dihydro-1,4-benzodioxin-6-yl)amino]methyl}-6-methoxy-1,2-dihydroquinolin-2-one], with greater than 10 µM.
Next, `Cc1cc2cc(CNc3ccc4cn[nH]c4c3)c(=O)[nH]c2cc1C` [Compound I-31, 3-{[(1H-indazol-6-yl)amino]methyl}-6,7-dimethyl-1,2-dihydroquinolin-2-one]: greater than 10 µM; `Cc1ccc2cc(NCc3cc4cc(Cl)ccc4[nH]c3=O)ccc2n1` [Compound I-32, 6-chloro-3-{[(2-methylquinolin-6-yl)amino]methyl}-1,2-dihydroquinolin-2-one]: greater than 10 µM; `O=c1[nH]c2ccc(Cl)cc2cc1CNc1ccc2c(c1)OCCO2` [Compound I-33, 6-chloro-3-{[(2,3-dihydro-1,4-benzodioxin-6-yl)amino]methyl}-1,2-dihydroquinolin-2-one]: greater than 10 µM.
Take `COc1ccc2[nH]c(=O)c(CNc3ccc4cn[nH]c4c3)cc2c1` [Compound I-34, 3-{[(1H-indazol-6-yl)amino]methyl}-6-methoxy-1,2-dihydroquinolin-2-one]: the IC50 is greater than 10 µM.
Then `COc1ccc2[nH]c(=O)c(CNc3ccc4nc(C)ccc4c3)cc2c1` [Compound I-35, 6-methoxy-3-{[(2-methylquinolin-6-yl)amino]methyl}-1,2-dihydroquinolin-2-one], with greater than 10 µM; and `COc1ccc2[nH]c(=O)c(CNc3ccc4ncsc4c3)cc2c1` [Compound I-36, 3-{[(1,3-benzothiazol-6-yl)amino]methyl}-6-methoxy-1,2-dihydroquinolin-2-one], with greater than 10 µM.
Then `Cc1ccc2cc(NCc3cc4cc(C)c(C)cc4[nH]c3=O)ccc2n1` [Compound I-37, 6,7-dimethyl-3-{[(2-methylquinolin-6-yl)amino]methyl}-1,2-dihydroquinolin-2-one], with greater than 10 µM; and `O=c1[nH]c2ccc(Cl)cc2cc1CNc1ccc2[nH]ncc2c1` [Compound I-38, 6-chloro-3-{[(1H-indazol-5-yl)amino]methyl}-1,2-dihydroquinolin-2-one], with greater than 10 µM.
Next, `COc1ccc2[nH]c(=O)c(CNc3ccc4ncccc4c3)cc2c1` [Compound I-39, 6-methoxy-3-{[(quinolin-6-yl)amino]methyl}-1,2-dihydroquinolin-2-one]: greater than 10 µM.

Source of the values: US9624175B2, “Fused-bicyclic aryl quinolinone derivatives as mutant-isocitrate dehydrogenase inhibitors” (Forma Therapeutics, Inc., priority 2015, dated 2017).
